Reference: PMC9785606, “Design and Synthesis of Novel Phenylahistin Derivatives Based on Co-Crystal Structures as Potent Microtubule Inhibitors for Anti-Cancer Therapy” (Marine Drugs, 2022)
Marks after values point to notes of the source that are not given here.

Columns and labels:
[1] = system: human lung cancer NCI-H460 cell line; test: MTT cytotoxicity assay, lung cancer NCI-H460 cell line; assay type: cell-based; conditions: mean ± SD
Procedure: (§1) Human cancer cell lines (lung cancer NCI-H460 cell line, pancreatic cancer BxPC-3 cell line, colon cancer HT-29 cell line) were purchased from American Type Cell Culture Collection (ATCC, Manassas, VA, USA). Cells were maintained in RPMI-1640 medium supplemented with 10% (v/v) heat-inactivated fetal bovine serum, penicillin-streptomycin (100 U/mL-100 […]) at 37 °C in a humidified atmosphere (5% CO2–95% air). All tested derivatives were dissolved in 100% cell culture grade DMSO. Cells (3 × 10^3 per well) were seeded in 96-well plates for 24 h. Then, cells were treated with the tested compounds in six concentrations for 72 h. Cell viability was assessed by MTT assay. The absorbance at 490 nm was measured with a Microplate Reader (Molecular Devices, Silicon Valley, CA, USA). The data were analyzed by Origin 8.5 (OriginLab, Northampton, MA, USA).

[2] = system: pancreatic cancer BxPC-3 cell line; test: MTT cytotoxicity assay, pancreatic cancer BxPC-3 cell line; assay type: cell-based; conditions: Homo sapiens, 72 h, mean ± SD
Procedure: as §1

[3] = system: colon cancer HT-29 cell line; test: MTT cytotoxicity assay, colon cancer HT-29 cell line; assay type: cell-based; conditions: Homo sapiens, 72 h, mean ± SD
Procedure: as §1

[4] = system: H22 hepatoma carcinoma cells transplanted tumor; test: H22 subcutaneous transplanted tumor model, intravenous administration; conditions: for Tumor Volume (D15): 14 consecutive days; for Tumor Volume (D1): D1 (baseline), mean ± SD; for Tumor Weight: excised at end of administration; for IR (tumor weight inhibition rate): IR = (1 − TWt/TWc) × 100%
Procedure: The anticancer effect of the compound 15p was further evaluated against H22 tumor-bearing mice models by intravenous injection at doses of 2 mg/kg, or 4 mg/kg, two or three times a week, and for 14 consecutive days. Docetaxel (10 mg/kg), plinabulin (4 mg/kg), and cyclophosphamide (20 mg/kg) were used as the positive controls.
Balb/c mice (4–6 weeks old, 16–18 g) were purchased from Shanghai Sippr-BK laboratory animal Co. Ltd. The animal study protocol was approved by Institutional Review Board of Science and Technology Division of Linyi University (review opinion on behalf of the Ethics Committee) (The protocol code is LYU20220107, provided on 10 March 2022). H22 cells were grown in RPMI-1640 midium supplemented with 10% fetal bovine serum, and maintained at 37 °C in humidified 5% CO2. Cells were passaged when they reached 70–80% confluence. Viable H22 cells (1 × 10^7 cells/0.2 ml 0.9% sodium chloride) were injected into the peritoneal cavity of BALB/C mice to trigger ascitic cell growth. Later, cells were harvested and suspended. H22 cancer cells (2 × 10^7 cells/0.1 ml 0.9% sodium chloride cells) were subcutaneously injected into the right flank of each mouse. After implantation, the tumor size was measured with an electronic caliper twice a week, and the tumor volume was calculated according to the following formula: tumor volume (mm^3) = 0.5 × length × width^2. When the tumor volume reached about 130 mm^3, the xenograft tumor-bearing BALB/C mice were randomly placed into six groups at 10 mice per group: vehicle, plinabulin (4 mg/kg), 15p ([…]), 15p ([…]), cyclophosphamide (20 mg/kg) and docetaxel (10 mg/kg) groups. Docetaxel, plinabulin, and cyclophosphamide were chosen as positive control drug. The reference compound docetaxel and cyclophosphamide were completely dissolved in isotonic saline. […] The solution of compound 15p was diluted with the concentrated solution and in isotonic saline at a calculated ratio. The solutions of plinabulin were made up according to similar methods. The mice received intravenous administration (iv) every two or three days for consecutive 14 days. The tumor volumes and the body weights were recorded every two or three days after treatment. At the end of the administration period, the animals were euthanized by dislocation, and the tumor bulks were peeled off conforming to the Guide for the Animal use and Management of Shanghai Medicilon Biological Medicine Co. Ltd. The tumor volume was calculated according to the Principles of Non-clinical Research Techniques for Anti-tumor Drugs of Cytotoxic Drugs by China Food and Drug Administration.

[5] = system: microtubules in NCI-H460 cells; test: Immunofluorescence assay of microtubules (β-tubulin/DAPI staining); assay type: cell-based, human; conditions: 24 h
Procedure: To further explore the effect of phenylahistin derivatives 1 and 15p on microtubules in cancer cells, an immunofluorescence assay was performed. […] The inhibitory activities were consistent with the previously shown anti-proliferative activities.
NCI-H460 cells were seeded in 24-well plate (with coverslips plated) at the density of 5 × 10^4 cells. […] Then, cells were fixed with 4% cold paraformaldehyde at 4 °C for 15 min and then permeabilized in 0.05% Triton X-100 for 10 min. The cells were blocked in 1% BSA for 30 min. Microtubules were detected by incubation with a monoclonal anti-β-tubulin (β-tubulin antibody was obtained from Servicebio, Wuhan, China.) at 4 °C for 12 h. Subsequently, the cells were washed with PBS and incubated with a FITC-conjugated anti-mouse IgG antibody. Nuclei were stained with DAPI (G1012, Servicebio, Wuhan, China). The coverslips were visualized under fluorescence microscope (Nikon Eclipse C1, Nikon, Japan) and an image-forming system (Nikon DS-U3, Nikon, Tokyo, Japan).

[6] = 20 mg/kg iv, listed as cyclophosphamide
[7] = 10 mg/kg iv, listed as docetaxel
[8] = 4 mg/kg iv, listed as plinabulin

Row | SMILES | IC50 ([1]; Homo sapiens, NCI-H460, 72 h) [nM] | melting point [°C] | IC50 [2] [nM] | IC50 [3] [nM] | further results
1 | CC(C)c1c(/C=c2\[nH]c(=O)/c(=C/c3cccc(C(=O)c4ccc(F)cc4)c3)[nH]c2=O)ncn1CCNC(=O)OC(C)(C)C [15m] | 27.3 ± 1.32 | 204 to 206 |  |  | 
2 | Cc1c(/C=c2\[nH]c(=O)/c(=C/c3cccc(C(=O)c4ccc(F)cc4)c3)[nH]c2=O)ncn1CCCNC(=O)OC(C)(C)C [15n] | 145.7 ± 0.27 | 206 to 208 |  |  | 
3 | CC(C)c1c(/C=c2\[nH]c(=O)/c(=C/c3cccc(C(=O)c4ccc(F)cc4)c3)[nH]c2=O)ncn1CCCNC(=O)OC(C)(C)C [15o] | 12.7 ± 0.71 | 179 to 180 |  |  | 
4 | C#CCn1cnc(/C=c2\[nH]c(=O)/c(=C/c3cccc(C(=O)c4ccc(F)cc4)c3)[nH]c2=O)c1C(C)C [15q] | 1.49 ± 0.31 | 150 to 152 | 1.15 ± 0.042 | 0.67 ± 0.035 | 
5 | Cc1c(/C=c2\[nH]c(=O)/c(=C/c3cccc(C(=O)c4ccc(F)cc4)c3)[nH]c2=O)ncn1CCN [16a] | 33.4 ± 9.59 | 180 to 182 |  |  | 
6 | CC(C)c1c(/C=c2\[nH]c(=O)/c(=C/c3cccc(C(=O)c4ccc(F)cc4)c3)[nH]c2=O)ncn1CCN [16b] | 11.3 | 190 to 192 | 3.27 ± 0.09 | 5.92 ± 0.39 | IC50 ([1]; 72 h): 11.3 ± 3.45 nM
7 | Cc1c(/C=c2\[nH]c(=O)/c(=C/c3cccc(C(=O)c4ccc(F)cc4)c3)[nH]c2=O)ncn1CCCN [16c] | 103 ± 11.7 | 247 to 248 |  |  | 
8 | CC(C)c1c(/C=c2\[nH]c(=O)/c(=C/c3cccc(C(=O)c4ccc(F)cc4)c3)[nH]c2=O)ncn1CCCN [16d] | 5.38 ± 1.46 | 199 to 201 | 2.35 ± 1.75 | 2.45 ± 0.42 | 
9 | O=P1(N(CCCl)CCCl)NCCCO1 (centres unmarked) [Cyclophosphamide] |  |  |  |  | Body weight compared to the control group ([4]; 20 mg/kg iv): decreased the body weights; Tumor Volume (D15) ([4]; 20 mg/kg iv): 687.2 ± 288.6* mm^3; Tumor Volume (D15) [4, 6]: 687.2 mm^3; Tumor Volume (D1) ([4]; 20 mg/kg iv): 105.1 ± 30.26 mm^3; Tumor Weight ([4]; 20 mg/kg iv): 0.42 ± 0.24 g; Tumor Weight [4, 6]: 0.42 g; IR (tumor weight inhibition rate) ([4]; 20 mg/kg iv): 62.6%
10 | CC(=O)O[C@@]12CO[C@@H]1C[C@H](O)[C@@]1(C)C(=O)[C@H](O)C3=C(C)[C@@H](OC(=O)[C@H](O)[C@@H](NC(=O)OC(C)(C)C)c4ccccc4)C[C@@](O)([C@@H](OC(=O)c4ccccc4)[C@H]21)C3(C)C [Docetaxel] |  |  |  |  | Tumor Volume (D15) ([4]; 10 mg/kg iv): 903.6 ± 421.7* mm^3; Tumor Volume (D15) [4, 7]: 903.6 mm^3; Tumor Volume (D1) ([4]; 10 mg/kg iv): 103.6 ± 30.75 mm^3; Tumor Weight ([4]; 10 mg/kg iv): 0.55 ± 0.22 g; Tumor Weight [4, 7]: 0.55 g; IR (tumor weight inhibition rate) ([4]; 10 mg/kg iv): 51.6%
11 | CC(C)(C)c1[nH]cnc1/C=c1\[nH]c(=O)/c(=C/c2ccccc2)[nH]c1=O [Plinabulin] | 26.2 ± 3.2 |  | 5.8 ± 0.2 | 6.6 ± 1.6 | Effect on microtubule networks ([5]; 10 nM): microtubule networks were damaged; Tumor Volume (D15) ([4]; 4 mg/kg iv): 1425.3 ± 411.2 mm^3; Tumor Volume (D15) [4, 8]: 1425.3 mm^3; Tumor Volume (D1) ([4]; 4 mg/kg iv): 104.7 ± 26.66 mm^3; Tumor Weight ([4]; 4 mg/kg iv): 0.77 ± 0.31 g; Tumor Weight [4, 8]: 0.77 g; IR (tumor weight inhibition rate) ([4]; 4 mg/kg iv): 31.9%
12 | CC(C)(C)c1[nH]cnc1/C=c1\[nH]c(=O)/c(=C/c2cccc(C(=O)c3ccc(F)cc3)c2)[nH]c1=O [compound 1] |  |  |  |  | Effect on microtubule networks ([5]; 2 nM): microtubule networks were damaged
